In patent publication EP0391644B1, “Aryl-substituted rhodanine derivatives” (ELI LILLY AND COMPANY, priority 1989, dated 1990):
Counter-ions that a name gives are not always drawn.

Tested on: adjuvant-induced arthritis
Assay: Developing Adjuvant-Induced Arthritis Test in Rats
Format: in vivo, male Lewis-Wistar rats
Details: AUC of uninjected paw volumes, Days 16 through 30; for inhibition in vivo at 50 mg/kg / inhibition in vivo at 25 mg/kg: Rattus norvegicus, po, 720 h, read-out: % Inhibition of Uninjected Paw Volume Inflammation; for inhibition in vivo at 25 mg/kg: 25 mg/kg P.O. x 29

5-{[3,5-bis(1,1-dimethylethyl)-4-hydroxyphenyl]methylene}-3-[2-(4-morpholinyl)ethyl]amino-4-thiazolidinone [Example 49]
% Inhibition of Uninjected Paw Volume Inflammation (50 mg/kg P.O. x 29): 36%

CC(C)(C)c1cc(CC2SC(=S)NC2=O)cc(C(C)(C)C)c1O (stereo not drawn) [Example 8, 5-{[3,5-bis(1,1-dimethylethyl)-4-hydroxyphenyl]methyl}-2-thioxo-4-thiazolidinone]
inhibition in vivo at 50 mg/kg (50 mg/kg P.O. x 29): 4%

CN(C)N1C(=O)C(=Cc2cc(C(C)(C)C)c(O)c(C(C)(C)C)c2)SC1=S [Example 19, 5-{[3,5-bis(1,1-dimethylethyl)-4-hydroxyphenyl]methylene}-3-dimethylamino-2-thioxo-4-thiazolidinone]
inhibition in vivo at 50 mg/kg (50 mg/kg P.O. x 29): 20.7%

CC(C)(C)c1cc(C=C2SCN(C3CC3)C2=O)cc(C(C)(C)C)c1O [Example 20, 5-{[3,5-bis(1,1-dimethylethyl)-4-hydroxyphenyl]methylene}-3-cyclopropyl-4-thiazolidinone]
inhibition in vivo at 50 mg/kg (50 mg/kg P.O. x 29): 36%

C=CCN1CSC(=Cc2cc(C(C)(C)C)c(O)c(C(C)(C)C)c2)C1=O [Example 24, 5-{[3,5-bis(1,1-dimethylethyl)-4-hydroxyphenyl]methylene}-3-(2-propenyl)-4-thiazolidinone]
inhibition in vivo at 50 mg/kg (50 mg/kg P.O. x 29): 0%

CC(=C1SCN(C)C1=O)c1cc(C(C)(C)C)c(O)c(C(C)(C)C)c1 [Example 25, 5-{[3,5-bis(1,1-dimethylethyl)-4-hydroxyphenyl]methylmethylene}-3-methyl-4-thiazolidinone]
inhibition in vivo at 50 mg/kg (50 mg/kg P.O. x 29): 8.5%

CC(C)(C)c1cc(C=C2SCN(CCN)C2=O)cc(C(C)(C)C)c1O [Example 27, 5-{[3,5-bis(1,1-dimethylethyl)-4-hydroxyphenyl]methylene}-3-(2-aminoethyl)-4-thiazolidinone]
inhibition in vivo at 50 mg/kg (50 mg/kg P.O. x 29): 40%

CN(C)CCN1CSC(=Cc2cc(C(C)(C)C)c(O)c(C(C)(C)C)c2)C1=O [Example 29, 5-{[3,5-bis(1,1-dimethylethyl)-4-hydroxyphenyl]methylene}-3-[2-(dimethylamino)ethyl]-4-thiazolidinone]
inhibition in vivo at 50 mg/kg (50 mg/kg P.O. x 29): 49%

CC(C)(C)c1cc(C=C2SCN(CCNCCO)C2=O)cc(C(C)(C)C)c1O [Example 30, 5-{[3,5-bis(1,1-dimethylethyl)-4-hydroxyphenyl]methylene}-3-[2-(2-hydroxyethylamino)ethyl]-4-thiazolidinone]
inhibition in vivo at 50 mg/kg (50 mg/kg P.O. x 29): 44.1%

C#CCN(C)CCN1CSC(=Cc2cc(C(C)(C)C)c(O)c(C(C)(C)C)c2)C1=O [Example 31, 5-{[3,5-bis(1,1-dimethylethyl)-4-hydroxyphenyl]methylene}-3-[2-(methyl-2-propynylamino)ethyl]-4-thiazolidinone]
inhibition in vivo at 50 mg/kg (50 mg/kg P.O. x 29): 28.9%

CN(C)CCNCCN1CSC(=Cc2cc(C(C)(C)C)c(O)c(C(C)(C)C)c2)C1=O [Example 32, 5-{[3,5-bis(1,1-dimethylethyl)-4-hydroxyphenyl]methylene}-3-{2-[[2-(dimethylamino)ethyl]amino]-ethyl}-4-thiazolidinone]
inhibition in vivo at 50 mg/kg (50 mg/kg P.O. x 29): 48.6%

CC(C)(C)c1cc(C=C2SCN(CCNCc3ccccc3)C2=O)cc(C(C)(C)C)c1O [Example 33, 5-{[3,5-bis(1,1-dimethylethyl)-4-hydroxyphenyl]methylene}-3-{2-[(phenylmethyl)amino]ethyl}-4-thiazolidinone hydrochloride]
inhibition in vivo at 50 mg/kg (50 mg/kg P.O. x 29): 30.1%

CNCCCN1CSC(=Cc2cc(C(C)(C)C)c(O)c(C(C)(C)C)c2)C1=O [Example 34, 5-{[3,5-bis(1,1-dimethylethyl)-4-hydroxyphenyl]methylene}-3-[3-(methylamino)propyl]-4-thiazolidinone]
inhibition in vivo at 50 mg/kg (50 mg/kg P.O. x 29): 1.6%

CC(C)(C)c1cc(C=C2SCN(Cc3nnn[nH]3)C2=O)cc(C(C)(C)C)c1O [Example 39, 5-{[3,5-bis(1,1-dimethylethyl)-4-hydroxyphenyl]methylene}-3-(1H-tetrazol-5-ylmethyl)-4-thiazolidinone]
inhibition in vivo at 50 mg/kg (50 mg/kg P.O. x 29): 2%

CCN(C)N1CSC(=Cc2cc(C(C)(C)C)c(O)c(C(C)(C)C)c2)C1=O [Example 40, 5-{[3,5-bis(1,1-dimethylethyl)-4-hydroxyphenyl]methylene}-3-(ethylmethylamino)-4-thiazolidinone]
inhibition in vivo at 50 mg/kg (50 mg/kg P.O. x 29): 23%

CCCCN(C)N1CSC(=Cc2cc(C(C)(C)C)c(O)c(C(C)(C)C)c2)C1=O [Example 41, 5-{[3,5-bis(1,1-dimethylethyl)-4-hydroxyphenyl]methylene}-3-(butylmethylamino)-4-thiazolidinone]
inhibition in vivo at 50 mg/kg (50 mg/kg P.O. x 29): 27%

CN1CCN(N2CSC(=Cc3cc(C(C)(C)C)c(O)c(C(C)(C)C)c3)C2=O)CC1 [Example 43, 5-{[3,5-bis(1,1-dimethylethyl)-4-hydroxyphenyl]methylene}-3-(4-methyl-1-piperazinyl)-4-thiazolidinone]
inhibition in vivo at 50 mg/kg (50 mg/kg P.O. x 29): 36%

CC(C)(C)c1cc(C=C2SCN(N3CCCCC3)C2=O)cc(C(C)(C)C)c1O [Example 44, 5-{[3,5-bis(1,1-dimethylethyl)-4-hydroxyphenyl]methylene}-3-(1-piperidinyl)-4-thiazolidinone]
inhibition in vivo at 50 mg/kg (50 mg/kg P.O. x 29): 15%

CC(C)(C)c1cc(C=C2SCN(N3CCOCC3)C2=O)cc(C(C)(C)C)c1O [Example 45, 5-{[3,5-bis(1,1-dimethylethyl)-4-hydroxyphenyl]methylene}-3-(4-morpholinyl)-4-thiazolidinone]
inhibition in vivo at 50 mg/kg (50 mg/kg P.O. x 29): 36%

CC(=C1SCN(N(C)C)C1=O)c1cc(C(C)(C)C)c(O)c(C(C)(C)C)c1 [Example 46, 5-{1-[3,5-bis(1,1-dimethylethyl)-4-hydroxyphenyl]methylmethylene}-3-(dimethylamino)-4-thiazolidinone]
inhibition in vivo at 50 mg/kg (50 mg/kg P.O. x 29): 9%

CNN1CSC(=Cc2cc(C(C)(C)C)c(O)c(C(C)(C)C)c2)C1=O [Example 47, 5-{[3,5-bis(1,1-dimethylethyl)-4-hydroxyphenyl]methylene}-3-(methylamino)-4-thiazolidinone]
inhibition in vivo at 50 mg/kg (50 mg/kg P.O. x 29): 69.3%

CC(C)(C)c1cc(C=C2SCN(N)C2=O)cc(C(C)(C)C)c1O [Example 50, 3-amino-5-{[3,5-bis(1,1-dimethylethyl)-4-hydroxyphenyl]methylene}-4-thiazolidinone]
inhibition in vivo at 50 mg/kg (50 mg/kg P.O. x 29): 62%

CCCNN1CSC(=Cc2cc(C(C)(C)C)c(O)c(C(C)(C)C)c2)C1=O [Example 51, 5-{[3,5-bis(1,1-dimethylethyl)-4-hydroxyphenyl]methylene}-3-(propylamino)-4-thiazolidinone]
inhibition in vivo at 25 mg/kg: 39%

CCNN1CSC(=Cc2cc(C(C)(C)C)c(O)c(C(C)(C)C)c2)C1=O [Example 52, 5-{[3,5-bis(1,1-dimethylethyl)-4-hydroxyphenyl]methylene}-3-(ethylamino)-4-thiazolidinone]
inhibition in vivo at 25 mg/kg: 45%

CCCNCCN1CSC(=Cc2cc(C(C)(C)C)c(O)c(C(C)(C)C)c2)C1=O [Example 54, 5-{[3,5-bis(1,1-dimethylethyl)-4-hydroxyphenyl]methylene}-3-[2-(propylamino)ethyl]-4-thiazolidinone]
inhibition in vivo at 50 mg/kg (50 mg/kg P.O. x 29): 37.6%

CC(C)(C)c1cc(C=C2SCN(NCCO)C2=O)cc(C(C)(C)C)c1O [Example 55, 5-{[3,5-bis(1,1-dimethylethyl)-4-hydroxyphenyl]methylene}-3-[(2-hydroxyethyl)amino]-4-thiazolidinone]
inhibition in vivo at 50 mg/kg (50 mg/kg P.O. x 29): 96.2%

CCCc1cc(C=C2SCN(C)C2=O)cc(CCC)c1O [Example 56, 5-[(4-hydroxy-3,5-dipropylphenyl)methylene]-3-methyl-4-thiazolidinone]
inhibition in vivo at 50 mg/kg (50 mg/kg P.O. x 29): 38.2%
